Results published in patent US9018208B2, “Heterocycles as potassium channel modulators” (Icagen Inc., priority 2007, dated 2015).

Each compound was assayed on SH-SY5Y M-currents (KCNQ2, KCNQ3 and KCNQ5) (assay: SH-SY5Y native cell line FLIPR assay (voltage-sensitive dye DiBAC)). Details: FLIPR assay, SH-SY5Y native cell line; Table 1; read-out: SH-SY5Y EC50.
Format: cell-based, mouse neuroblastoma, rat glioma hybrid cell line
Outline: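 Response is peak DiBAC fluorescence change, normalised to the maximum from a positive control agent, sampled every 30 s over 25 min. Before compound addition, SH-SY5Y cells differentiated with PGE1 plus isomethylbutylxanthine were dye-loaded for 1 h in EBSS with […] DiBAC.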
`CC(C)CCc1c(NC(=O)Cc2ccc(F)cc2)nc2ccc(C(F)(F)F)cn12` [Compound 39, 2-(4-fluorophenyl)-N-(3-isopentyl-6-(trifluoromethyl)imidazo[1,2-a]pyridin-2-yl)acetamide] showed an EC50 of under 500 nM. `Cc1cccc2nc(NC(=O)CC(C)(C)C)cn12` [Compound 9, 3,3-dimethyl-N-(5-methylimidazo[1,2-a]pyridin-2-yl)butanamide] showed an EC50 of 3000 to 10000 nM. `CC(C)(C)CC(=O)Nc1nc2ccc(F)cn2c1Cc1ccc(C(F)(F)F)cc1` [Compound 28, N-(6-fluoro-3-(4-(trifluoromethyl)benzyl)imidazo[1,2-a]pyridin-2-yl)-3,3-dimethylbutanamide] gave an EC50 of under 500 nM. `Cc1cccc2nc(NC(=O)C(F)(F)F)cn12` [Compound 8, 2,2,2-trifluoro-N-(5-methylimidazo[1,2-a]pyridin-2-yl)acetamide] was tested, and the EC50 was 3000 to 10000 nM. Compound `CC(CC(=O)Nc1nc2ccccn2c1CC(C)(C)C)C(F)(F)F` (centres unmarked) [Compound 86, 4,4,4-trifluoro-3-methyl-N-(3-neopentylimidazo[1,2-a]pyridin-2-yl)butanamide] has an EC50 of 500 to 3000 nM. In the case of `O=C(Nc1nc2ccc(C(F)(F)F)cn2c1C1CC1)C1CCC(F)(F)CC1` [Compound 75, N-(3-cyclopropyl-6-(trifluoromethyl)imidazo[1,2-a]pyridin-2-yl)-4,4-difluorocyclohexanecarboxamide], the EC50 is reported as under 500 nM. In the case of `Cc1ccc2nc(NC(=O)CC(C)(C)C)c(C3CC3)n2n1` [Compound 74, N-(3-cyclopropyl-6-methylimidazo[1,2-b]pyridazin-2-yl)-3,3-dimethylbutanamide], the EC50 is reported as 500 to 3000 nM. Work on `O=C(Nc1cn2cc(F)ccc2n1)C(F)(F)F` [Compound 10, 2,2,2-trifluoro-N-(6-fluoroimidazo[1,2-a]pyridin-2-yl)acetamide] yielded an EC50 of 3000 to 10000 nM.

Same assay, conditions: FLIPR assay, SH-SY5Y native cell line; Table 2; read-out: SH-SY5Y EC50
`CC(=O)OCC(C)(C)CC(=O)Nc1nc2ccc(F)cn2c1-c1ccc(OC(F)(F)F)cc1` [Compound 191, 4-(6-fluoro-3-(4-(trifluoromethoxy)phenyl)imidazo[1,2-a]pyridin-2-ylamino)-2,2-dimethyl-4-oxobutyl acetate] gave an EC50 of 3000 to 10000 nM. “N-(6-fluoro-3-(3-(trifluoromethoxy)phenyl)imidazo yl)cycloheptanecarboxamide [Compound 293]” showed an EC50 of under 500 nM. In the case of `CC(C)C(C)C(=O)Nc1nc2ccc(F)cn2c1-c1ccc(OC(F)(F)F)cc1` (centres unmarked) [Compound 249, N-(6-fluoro-3-(4-(trifluoromethoxy)phenyl)imidazo[1,2-a]pyridin-2-yl)-2,3-dimethylbutanamide], the EC50 is reported as under 500 nM. Work on `CC(CC(=O)Nc1nc2ccc(F)cn2c1-c1ccc(F)cc1)C(F)(F)F` (centres unmarked) [Compound 144, 4,4,4-trifluoro-N-(6-fluoro-3-(4-fluorophenyl)imidazo[1,2-a]pyridin-2-yl)-3-methylbutanamide] yielded an EC50 of 500 to 3000 nM. `CC(C)(C)CC(=O)Nc1nc2ccc(F)cn2c1-c1ccc(C(C)(C)C#N)cc1` [Compound 175, N-(3-(4-(2-cyanopropan-2-yl)phenyl)-6-fluoroimidazo[1,2-a]pyridin-2-yl)-3,3-dimethylbutanamide] gave an EC50 of 500 to 3000 nM. `CC(C)(C)CC(=O)Nc1nc2ccc(F)cn2c1-c1cccc(OC(F)(F)F)c1` [Compound 182, N-(6-fluoro-3-(3-(trifluoromethoxy)phenyl)imidazo[1,2-a]pyridin-2-yl)-3,3 dimethylbutanamide] showed an EC50 of under 500 nM. Work on `Cc1ccc(CC(=O)Nc2nc3ccc(F)cn3c2-c2ccc(F)cc2)cc1` [Compound 143, N-(6-fluoro-3-(4-fluorophenyl)imidazo[1,2-a]pyridin-2-yl)-2-p-tolylacetamide] yielded an EC50 of under 500 nM. With `CC(CC(=O)Nc1nc2ncc(Cl)cn2c1-c1cccc(Cl)c1)C(F)(F)F` (centres unmarked) [Compound 321, N-(6-chloro-3-(3-chlorophenyl)imidazo[1,2-a]pyrimidin-2-yl)-4,4,4-trifluoro-3-methylbutanamide] the EC50 was 3000 to 10000 nM. “3-tert-butoxy-N-(6-fluoro-3-(4-(trifluoromethoxy)phenyl)imidazo yl)propanamide [Compound 261]” gave an EC50 of under 500 nM. Work on `CC(CC(=O)Nc1nc2ccc(F)cn2c1-c1ccc(F)cc1)CC(C)(C)C` (centres unmarked) [Compound 139, N-(6-fluoro-3-(4-fluorophenyl)imidazo[1,2-a]pyridin-2-yl)-3,5,5-trimethylhexanamide] yielded an EC50 of under 500 nM. `O=C(Nc1nc2ccc(F)cn2c1-c1ccc(OC(F)(F)F)c(F)c1)C1CCC1` [Compound 334, N-(6-fluoro-3-(3-fluoro-4-(trifluoromethoxy)phenyl)imidazo[1,2-a]pyridin-2-yl)cyclobutanecarboxamide] gave an EC50 of 500 to 3000 nM. With `CC(C)(CO)CC(=O)Nc1nc2ccc(F)cn2c1-c1ccc(OC(F)(F)F)cc1` [Compound 192, N-(6-fluoro-3-(4-(trifluoromethoxy)phenyl)imidazo[1,2-a]pyridin-2-yl)-4-hydroxy-3,3-dimethylbutanamide] the EC50 was 500 to 3000 nM.

Same assay, conditions: SH-SY5Y native cell line, FLIPR assay (Table 3); read-out: SH-SY5Y EC50
Compound `CC(C)(C)CC(=O)Nc1nc2ccc(C(F)(F)F)cn2c1-c1cc(C(F)(F)F)ccn1` [Compound 398, 3,3-dimethyl-N-(6-(trifluoromethyl)-3-(4-(trifluoromethyl)pyridin-2-yl)imidazo[1,2-a]pyridin-2-yl)butanamide] has an EC50 of under 500 nM. Work on `Cc1ccc2nc(NC(=O)CC(C)(C)C)c(-c3nc4ccccc4s3)n2n1` [Compound 382, N-(3-(benzo[d]thiazol-2-yl)-6-methylimidazo[1,2-b]pyridazin-2-yl)-3,3-dimethylbutanamide] yielded an EC50 of 3000 to 10000 nM. `CC(C)(C)CC(=O)Nc1nc2ccccn2c1-c1cc(C(F)(F)F)ccn1` [Compound 404, 3,3-dimethyl-N-(3-(4-(trifluoromethyl)pyridin-2-yl)imidazo[1,2-a]pyridin-2-yl)butanamide] showed an EC50 of 500 to 3000 nM. `CC(C)(C)CC(=O)Nc1nc2ccc(F)cn2c1-c1nccc(C(F)(F)F)n1` [Compound 377, N-(6-fluoro-3-(4-(trifluoromethyl)pyrimidin-2-yl)imidazo[1,2-a]pyridin-2-yl)-3,3-dimethylbutanamide] gave an EC50 of 3000 to 10000 nM. Work on `CC(CC(=O)Nc1nc2ccc(C(F)(F)F)cn2c1-c1cc(C(F)(F)F)ccn1)C(F)(F)F` (centres unmarked) [Compound 399, 4,4,4-trifluoro-3-methyl-N-(6-(trifluoromethyl)-3-(4-(trifluoromethyl)pyridin-2-yl)imidazo[1,2-a]pyridin-2-yl)butanamide] yielded an EC50 of 500 to 3000 nM. Work on `CC(C)(C)CC(=O)Nc1nc2ccc(F)cn2c1-c1ccc(F)cn1` [Compound 352, N-(6-fluoro-3-(5-fluoropyridin-2-yl)imidazo[1,2-a]pyridin-2-yl)-3,3-dimethylbutanamide] yielded an EC50 of 500 to 3000 nM. With `CC(C)(C)CC(=O)Nc1nc2ccc(F)cn2c1-c1ccc(F)nc1` [Compound 349, N-(6-fluoro-3-(6-fluoropyridin-3-yl)imidazo[1,2-a]pyridin-2-yl)-3,3-dimethylbutanamide] the EC50 was 500 to 3000 nM. For `CC(C)(C)CC(=O)N(C(=O)CC(C)(C)C)c1nc2ccc(F)cn2c1-c1nc2ccccc2s1` [Compound 358, N-(3-(benzo[d]thiazol-2-yl)-6-fluoroimidazo[1,2-a]pyridin-2-yl)-N-(3,3-dimethylbutanoyl)-3,3-dimethylbutanamide], the EC50 was 3000 to 10000 nM. `Cc1nc(-c2c(NC(=O)CC(C)(C)C)nc3ccccn23)cs1` [Compound 416, 3,3-dimethyl-N-(3-(2-methylthiazol-4-yl)imidazo[1,2-a]pyridin-2-yl)butanamide] gave an EC50 of 3000 to 10000 nM.
